According to article PMC7865627, “Small Molecule-Based Prodrug Targeting Prostate Specific Membrane Antigen for the Treatment of Prostate Cancer” (Cancers, 2021):
*1 amine or outer side, *2 acyl side, *3 side chain or, on linkers, in order; H or OH if unused. Where a SMILES comes first, the peptide text is derived from it. Bridges are numbered along the chain shown (N, C = ends). Roman numbers before positions name the chains, in order. [ ]: non-standard residue; d: D form. The star is where a group is joined. Hexanoyl(6-succinimido-3yl) = O=C1CC([*:1])C(=O)N1CCCCCC(=O)[*:2]; Dolaproine = CO[C@@H]([C@@H]1CCCN1)[C@@H](C)C(=O)O; Dil = CC[C@H](C)[C@H](NC)[C@@H](CC(=O)O)OC; γGlu = O=C(O)[C@H](CCC(=O)[*:2])N[*:1]; PABC = O=C(OCc1ccc(N[*:1])cc1)[*:2]; X2 = C[C@@H](N*)[C@@H](O)c1ccccc1; X1 = O=C(C1CCC(CN[*:1])CC1)[*:2]; Cit = NC(=O)NCCC[C@H](N)C(=O)O; NMeV = CN[C@H](C(=O)O)C(C)C; CO = O=C([*:1])[*:2]; Ahx = NCCCCCC(=O)O

Tested on: heterotopic PC3flu tumors
Test: Heterotopic PC3flu versus PC3pip tumor study
Format: in vivo, mouse
Conditions: 955 nmol/kg every 4 days, five doses, n = 5, p = 0.0493
Description: Male athymic nude mice were implanted subcutaneously with 1 × 10^6 of PC3pip cells 100 μL of matrigel. When tumor size reached approximately 100 mm^3 (tumor volume = Length × width^2/2), mice received drugs through tail vein injection every 4 days with a total of five doses. Mice were treated every 4 days with a total of five doses. Animals were weighed and tumor size measured every other day for 90 days. Cures were defined as no tumor present at end of the 90-day study. When tumors became too large or animals were moribund they were euthanized. Five mice were used in each group. […]
drugs through tail vein inject every 4 days with total of 5 injections as indicated by the red arrows.
Each group had 5 mice. Values are mean ± SD of 5 animals. The plots stopped when animals died during the experiments since values are represent as mean ± SD of 5 animals.
(nmol/kg) Tumor Growth (nmol/kg) Therapeutic Index *
*: Therapeutic index is defined by MTD/effective dose.
PC3flu tumors. Treatment were scheduled every 4 days with a total of five doses as indicated by the red arrow. Each group had 5 mice. For tumor growth curves and body weight curves, values are mean ± SD of 5 animals. The plots stopped when animals died during the experiments since values are represent as mean ± SD of 5 animals. (A) Tumor growth curves of mice treated with 955 nmol/kg of PSMA-1-VcMMAE. […]

SMILES: CC[C@H](C)[C@@H]([C@@H](CC(=O)N1CCC[C@H]1[C@H](OC)[C@@H](C)C(=O)N[C@H](C)[C@@H](O)c1ccccc1)OC)N(C)C(=O)[C@@H](NC(=O)[C@H](C(C)C)N(C)C(=O)OCc1ccc(NC(=O)[C@H](CCCNC(N)=O)NC(=O)[C@@H](NC(=O)CCCCCN2C(=O)CC(SC[C@H](NC(=O)[C@@H](CCC(=O)O)NC(=O)[C@@H](CCC(=O)O)NC(=O)[C@@H](CCC(=O)O)NC(=O)CCCCCNC(=O)C3CCC(CNC(=O)CC[C@H](NC(=O)N[C@@H](CCC(=O)O)C(=O)O)C(=O)O)CC3)C(=O)NCCCCCC(=O)N[C@@H](CCCCN)C(N)=O)C2=O)C(C)C)cc1)C(C)C (stereo partly shown) [PSMA-1-VcMMAE] (I: {Glu-CO-γGlu}-[X1][Ahx][dE][dE][dE]C[Ahx]K-NH2 / II: V[Cit][PABC][NMeV]V[Dil][Dolaproine]-X2; linker I:6-II:N via Hexanoyl(6-succinimido-3yl))
- inhibition of PC3pip versus PC3flu tumor growth (in words): significantly more effective at inhibiting PSMA-positive PC3pip tumor growth than PSMA-negative PC3flu tumor growth
